Assay results from ChEMBL document CHEMBL3400005, “Thermodynamic equilibrium solubility measurements in simulated fluids by 96-well plate method in early drug discovery” (Bioorg Med Chem Lett, 2015).
In brackets after ≈: the same amount, converted by molar mass.

What was measured:
[1] = buffer, 4 h
[2] = buffer, pH 7.4, 4 h
physchem [3] = settings: simulated gastric fluid, pH 1.2
physchem [4] = settings: simulated intestinal fluid, pH 6.8
[5] = simulated gi fluid, pH 1.2, 4 h
[6] = simulated gi fluid, pH 6.8, 4 h
[7] = buffer, 24 h
[8] = buffer, pH 7.4, 24 h
[9] = simulated gi fluid, pH 1.2, 24 h
[10] = simulated gi fluid, pH 6.8, 24 h
physchem [11] = settings: water
physchem [12] = settings: water; remark: listed apart in the source
physchem [13] = settings: PBS, pH 7.4
physchem [14] = settings: simulated gastric fluid, pH 1.2; remark: listed apart in the source
physchem [15] = settings: simulated intestinal fluid, pH 6.8; remark: listed apart in the source
physchem [16] = test: physchem
physchem [17] = settings: PBS, pH 7.4; remark: listed apart in the source

| SMILES | -log(solubility) [1] | -log(solubility) [2] | solubility thermodynamic at 4 h (physchem [3]) [µM] | solubility thermodynamic at 4 h (physchem [4]) [µM] | -log(solubility) [5] | -log(solubility) [6] | -log(solubility) [7] | -log(solubility) [8] | -log(solubility) [9] | -log(solubility) [10] | -log(solubility) | solubility [µg/mL] | solubility thermodynamic at 4 h (physchem [11]) [µM] | solubility thermodynamic at 24 h (physchem [12]) [µM] | solubility thermodynamic at 24 h (physchem [13]) [µM] | solubility thermodynamic at 24 h (physchem [14]) [µM] | solubility thermodynamic at 24 h (physchem [15]) [µM] | solubility thermodynamic (physchem [16]) [µM] | solubility thermodynamic at 4 h (physchem [17]) [µM] |
| --- | --- | --- | --- | --- | --- | --- | --- | --- | --- | --- | --- | --- | --- | --- | --- | --- | --- | --- | --- |
| CC1(C)[C@@H](O)CC[C@]2(C)[C@H]3C(=O)C=C4[C@@H]5C[C@@](C)(C(=O)O)CC[C@]5(C)CC[C@@]4(C)[C@]3(C)CC[C@@H]12 [ENOXOLONE] | 5.97 | 5.67 | 1.07 (≈ 0.504 µg/mL) | 1.07 (≈ 0.504 µg/mL) | – | – | – | – | – | – | – | – | – | – | – | – | – | – | – |
| CCCC1O[C@@H]2C[C@H]3[C@@H]4CCC5=CC(=O)C=C[C@]5(C)[C@H]4[C@@H](O)C[C@]3(C)[C@]2(C(=O)CO)O1 (stereo partly drawn) [BUDESONIDE] | 5.03 | 5.03 | – | – | 5.03 | 5.03 | 5.23 | 5.27 | 5.07 | 5.24 | 5.33 | 28 (≈ 65 µM) | – | – | – | – | – | – | – |
| COCCOC(=O)C1=C(C)NC(C)=C(C(=O)OC(C)C)C1c1cccc([N+](=O)[O-])c1 (stereo not drawn) [NIMODIPINE] | – | 6.62 | 9.55 (≈ 4 µg/mL) | 9.55 (≈ 4 µg/mL) | – | – | – | – | – | – | – | – | 4.79 (≈ 2 µg/mL) | 4.07 (≈ 1.7 µg/mL) | 0.398 (≈ 0.167 µg/mL) | 10.7 (≈ 4.48 µg/mL) | 10 (≈ 4.18 µg/mL) | 5.75 (≈ 2.41 µg/mL) | – |
| CO[C@H]1/C=C/O[C@@]2(C)Oc3c(C)c(O)c4c(O)c(c(/C=N/N5CCN(C)CC5)c(O)c4c3C2=O)NC(=O)/C(C)=C\C=C\[C@H](C)[C@H](O)[C@@H](C)[C@@H](O)[C@@H](C)[C@H](OC(C)=O)[C@@H]1C [RIFAMPIN] | 4.31 | 4.01 | 97.7 (≈ 80.4 µg/mL) | 97.7 (≈ 80.4 µg/mL) | – | – | 4.21 | 4.14 | – | – | – | – | – | – | – | 95.5 (≈ 78.6 µg/mL) | 72.4 (≈ 59.6 µg/mL) | – | – |
| COc1cc2c(c(OC)c1OC)-c1ccc(OC)c(=O)cc1[C@@H](NC(C)=O)CC2 [COLCHICINE] | 3.43 | 3.7 | 50.1 (≈ 20 µg/mL) | 200 (≈ 79.7 µg/mL) | – | – | – | – | – | – | – | – | – | – | – | – | – | – | – |

More lines, now with the values ahead:

| -log(solubility) [1] | -log(solubility) [2] | solubility thermodynamic at 4 h (physchem [3]) [µM] | solubility thermodynamic at 4 h (physchem [4]) [µM] | -log(solubility) [5] | -log(solubility) [6] | -log(solubility) [7] | -log(solubility) [8] | -log(solubility) [9] | -log(solubility) [10] | -log(solubility) | solubility [µg/mL] | solubility thermodynamic at 4 h (physchem [11]) [µM] | solubility thermodynamic at 24 h (physchem [12]) [µM] | solubility thermodynamic at 24 h (physchem [13]) [µM] | solubility thermodynamic at 24 h (physchem [14]) [µM] | solubility thermodynamic at 24 h (physchem [15]) [µM] | solubility thermodynamic (physchem [16]) [µM] | solubility thermodynamic at 4 h (physchem [17]) [µM] | SMILES |
| --- | --- | --- | --- | --- | --- | --- | --- | --- | --- | --- | --- | --- | --- | --- | --- | --- | --- | --- | --- |
| 4.07 | 4.47 | – | – | 4.07 | 4.28 | 4.4 | 4.48 | 4.34 | 4.85 | 4.29 | 170 (≈ 720 µM) | – | – | – | – | – | – | – | NC(=O)N1c2ccccc2C=Cc2ccccc21 [CARBAMAZEPINE] |
| – | – | 1.35 (≈ 0.497 µg/mL) | 1.35 (≈ 0.497 µg/mL) | – | – | – | – | – | – | 6.78 | – | 1.35 (≈ 0.497 µg/mL) | – | – | – | – | – | 1.35 (≈ 0.497 µg/mL) | COc1cc(/C=C/C(=O)CC(=O)/C=C/c2ccc(O)c(OC)c2)ccc1O [CURCUMIN] |
| 2.7 | 3 | 1000 (≈ 151 µg/mL) | 3.31 (≈ 0.501 µg/mL) | – | – | 2.87 | 2.93 | – | – | – | – | – | – | – | 1230 (≈ 186 µg/mL) | 3.31 (≈ 0.501 µg/mL) | – | – | CC(=O)Nc1ccc(O)cc1 [ACETAMINOPHEN] |
